From article PMC5164969 (Bioorganic & medicinal chemistry, 2016)
Converted amounts (≈) assume the structure as drawn.

Key:
MRSA = format: cell-based, Staphylococcus aureus; settings: strain C (MRSA), 15 serial passages
VRE = format: cell-based, enterococcus; settings: strain D (VRE), 15 serial passages
[1] = tested on: L. monocytogenes ATCC 19115; format: cell-based, Listeria monocytogenes; settings: strain B (Lmo), 15 serial passages
E. coli MC1061 = assay: Antibacterial MIC; format: cell-based; settings: Escherichia coli
[2] = tested on: L. monocytogenes ATCC 19115; assay: Antibacterial MIC; format: cell-based; settings: Listeria monocytogenes, ATCC19115
[3] = tested on: methicillin-resistant Staphylococcus aureus (MRSA); assay: Antibacterial MIC; format: cell-based
K. pneumoniae ATCC 27736 = assay: Antibacterial MIC; format: cell-based; settings: Klebsiella pneumoniae, ATCC27736
[4] = tested on: panel of Gram-positive, Gram-negative and mycobacterial strains; assay: Antibacterial MIC, summary over the panel of bacterial strains; format: cell-based; settings: all bacterial strains tested
P. aeruginosa ATCC 27853 [5] = format: cell-based; settings: strain I (Pae); for development of resistance (passage after which resistance developed): 15 serial passages
C. albicans ATCC 64124 = assay: Antifungal MIC; format: cell-based; settings: Candida albicans, ATCC64124
C. albicans ATCC 90819 = assay: Antifungal MIC; format: cell-based; settings: Candida albicans, ATCC90819
[6] = Mammalian cell cytotoxicity, summary over both cell lines; format: cell-based; settings: human, A549 cells and BEAS-2B cells
B. subtilis 168 = assay: Antibacterial MIC; format: cell-based; settings: Bacillus subtilis
E. cloacae ATCC 13047 = assay: Antibacterial MIC; format: cell-based; settings: Enterobacter cloacae, ATCC13047
hERG channel = hERG channel (Homo sapiens, UniProt Q12809); format: binding; settings: class by IC50
hERG channel, sequence (Q12809 whole entry): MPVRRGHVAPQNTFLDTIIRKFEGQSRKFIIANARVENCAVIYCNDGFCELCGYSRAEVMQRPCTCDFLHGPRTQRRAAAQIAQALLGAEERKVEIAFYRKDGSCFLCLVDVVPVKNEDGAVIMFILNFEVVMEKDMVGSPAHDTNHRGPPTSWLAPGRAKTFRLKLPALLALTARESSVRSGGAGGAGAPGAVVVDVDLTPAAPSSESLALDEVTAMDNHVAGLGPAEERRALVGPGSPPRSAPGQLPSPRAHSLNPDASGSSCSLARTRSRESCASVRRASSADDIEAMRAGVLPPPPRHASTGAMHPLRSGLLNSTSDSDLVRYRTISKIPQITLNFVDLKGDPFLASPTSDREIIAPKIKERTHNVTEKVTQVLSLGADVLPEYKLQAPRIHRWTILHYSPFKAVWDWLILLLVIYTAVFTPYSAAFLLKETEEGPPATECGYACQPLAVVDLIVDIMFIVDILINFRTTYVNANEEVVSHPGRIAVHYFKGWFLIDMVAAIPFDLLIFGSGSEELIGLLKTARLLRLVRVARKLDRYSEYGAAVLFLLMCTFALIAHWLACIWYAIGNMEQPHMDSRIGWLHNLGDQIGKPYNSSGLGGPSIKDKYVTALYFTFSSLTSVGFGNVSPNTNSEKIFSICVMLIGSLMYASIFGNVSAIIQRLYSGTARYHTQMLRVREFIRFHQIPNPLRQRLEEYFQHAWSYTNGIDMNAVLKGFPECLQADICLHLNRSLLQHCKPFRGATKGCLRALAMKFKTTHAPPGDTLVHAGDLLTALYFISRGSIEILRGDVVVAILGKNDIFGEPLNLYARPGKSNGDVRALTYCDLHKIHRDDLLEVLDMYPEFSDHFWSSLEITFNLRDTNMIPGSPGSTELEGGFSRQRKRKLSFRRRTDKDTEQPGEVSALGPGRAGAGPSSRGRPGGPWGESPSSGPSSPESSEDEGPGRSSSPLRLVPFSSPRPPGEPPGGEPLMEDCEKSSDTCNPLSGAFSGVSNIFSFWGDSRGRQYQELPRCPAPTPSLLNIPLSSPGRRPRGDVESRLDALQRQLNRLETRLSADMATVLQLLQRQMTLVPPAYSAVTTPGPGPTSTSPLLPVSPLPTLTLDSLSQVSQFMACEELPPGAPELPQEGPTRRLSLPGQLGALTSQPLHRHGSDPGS

C. albicans ATCC 10231 [7] = assay: Intracellular ROS production, DCFH-DA fluorescence assay; format: cell-based, Candida albicans; settings: 1 h at 35 °C, DCFH-DA staining
C. albicans ATCC 10231 [8] = format: cell-based, Candida albicans; settings: C. albicans ATCC 10231, repeated treatments with sub-MIC drug concentrations
P. aeruginosa ATCC 27853 [9] = assay: Antibacterial MIC; format: cell-based; settings: Pseudomonas aeruginosa, ATCC27853
[10] = tested on: vancomycin-resistant enterococcus (VRE); assay: Antibacterial MIC; format: cell-based
[11] = tested on: seven Candida albicans strains; assay: Antifungal MIC, summary over the panel of seven strains; format: cell-based; settings: most of the fungal strains tested / overall

SMILES: NCC[C@H](O)C(=O)N[C@@H]1C[C@H](N)[C@@H](O[C@H]2O[C@H](CN)[C@@H](O)[C@H](O)[C@H]2O)[C@H](O)[C@H]1O[C@H]1O[C@H](CO)[C@@H](O)[C@H](N)[C@H]1O [AMK, amikacin, reference compound]
- development of resistance (passage after which resistance developed) (MRSA): 12 passages
- development of resistance (passage after which resistance developed) (VRE): 3 passages
- development of resistance (passage after which resistance developed) [1]: 15 passages
- MIC (E. coli MC1061): 24.5 µg/mL (≈ 41.8 µM)
- MIC [2]: 3 µg/mL (≈ 5.12 µM)
- MIC [3]: 24.5 µg/mL (≈ 41.8 µM)
- MIC (K. pneumoniae ATCC 27736): 24.5 µg/mL (≈ 41.8 µM)
- MIC, range over bacterial strains tested [4]: 3.9 to 125 µM
- development of resistance (passage after which resistance developed) (P. aeruginosa ATCC 27853 [5]): 5 passages

SMILES: CC1(C)S[C@@H]2[C@H](NC(=O)[C@H](N)c3ccccc3)C(=O)N2[C@H]1C(=O)O [AMP, ampicillin, reference compound]
- MIC (E. coli MC1061): > 92.8 µg/mL
- MIC, range over bacterial strains tested [4]: ≥ 250 µM

SMILES: C[C@@H]1[C@H](O)[C@@H](C)/C=C/C=C/C=C/C=C/C=C/C=C/C=C/[C@H](O[C@@H]2O[C@H](C)[C@@H](O)[C@H](N)[C@@H]2O)C[C@@H]2O[C@](O)(C[C@@H](O)C[C@@H](O)[C@H](O)CC[C@@H](O)C[C@@H](O)CC(=O)O[C@H]1C)C[C@H](O)[C@H]2C(=O)O [AmB, amphotericin B]
- MIC (C. albicans ATCC 64124): 2 to 3.9 µg/mL (≈ 2.16 to 4.22 µM)
- MIC (C. albicans ATCC 90819): 2 µg/mL (≈ 2.16 µM)

SMILES: Cl.Cl.N=C(N)N/N=C/c1ccc(-c2ccc(/C=N/NC(=N)N)cc2)cc1 [Compound 3A]
- MIC (E. coli MC1061): > 198 µg/mL

SMILES: Cl.Cl.N=C(N)N/N=C/c1ccc(-c2cccc(/C=N/NC(=N)N)c2)cc1 [Compound 3B]
- MIC (E. coli MC1061): > 198 µg/mL
- IC50 [6]: 4.4 to 13.9 µg/mL

SMILES: C/C(=N\NC(=N)N)c1ccc(-c2ccc(/C(C)=N/NC(=N)N)cc2)cc1.Cl.Cl [Compound 4A]
- MIC (E. coli MC1061): 26.5 µg/mL

SMILES: C/C(=N\NC(=N)N)c1ccc(Cc2ccc(/C(C)=N/NC(=N)N)cc2)cc1.Cl.Cl [Compound 4C]
- MIC (E. coli MC1061): > 219 µg/mL

SMILES: C/C(=N\NC(=N)N)c1ccc(CCc2ccc(/C(C)=N/NC(=N)N)cc2)cc1.Cl.Cl [Compound 4D]
- MIC (E. coli MC1061): > 226 µg/mL
- increase in MIC values (P. aeruginosa ATCC 27853 [5]; after 15 serial passages at sub-inhibitory concentrations): 4 fold

SMILES: C/C(=N\NC(=N)N)c1ccc(Oc2ccc(/C(C)=N/NC(=N)N)cc2)cc1.Cl.Cl [Compound 4E]
- MIC (E. coli MC1061): 54.9 µg/mL
- MIC [3]: 54.9 µg/mL
- MIC (B. subtilis 168): 54.9 µg/mL

SMILES: C/C(=N\NC(=N)N)c1ccc2c(c1)Cc1cc(/C(C)=N/NC(=N)N)ccc1-2.Cl.Cl [Compound 4F]
- MIC (E. cloacae ATCC 13047): 218 µg/mL
- development of resistance (passage after which resistance developed) (MRSA): did not develop resistance
- development of resistance (passage after which resistance developed) (VRE): did not develop resistance
- development of resistance (passage after which resistance developed) [1]: did not develop resistance
- MIC (E. coli MC1061): 218 µg/mL
- affinity for / interaction with hERG (class) (hERG channel): moderate (IC50 values in the range of 1-10 μM are considered to have moderate affinity)
- intracellular ROS production (C. albicans ATCC 10231 [7]; 1× and 2× MIC): increased intracellular ROS production
- development of drug resistance (C. albicans ATCC 10231 [8]): did not to develop drug resistance
- development of resistance (passage after which resistance developed) (P. aeruginosa ATCC 27853 [5]): did not develop resistance

SMILES: C/C(=N\NC(=N)N)c1ccc(/C(C)=N/NC(=N)N)cc1.Cl.Cl [Compound 4G]
- MIC (E. coli MC1061): > 173 µg/mL

SMILES: C/C(=N\NC(=N)N)c1cccc(/C(C)=N/NC(=N)N)c1.Cl.Cl [Compound 4H]
- MIC (E. coli MC1061): > 173 µg/mL

SMILES: Cl.N=C(N)N/N=C/c1ccc(-c2ccc(/C=N/Nc3ccccc3Cl)cc2)cc1 [Compound 7Aa]
- MIC (E. cloacae ATCC 13047): > 215 µg/mL
- development of resistance (passage after which resistance developed) (MRSA): twelve
- development of resistance (passage after which resistance developed) (VRE): did not develop resistance
- development of resistance (passage after which resistance developed) [1]: did not develop resistance
- MIC (P. aeruginosa ATCC 27853 [9]): > 215 µg/mL
- MIC (E. coli MC1061): > 215 µg/mL
- affinity for / interaction with hERG (class) (hERG channel): moderate (IC50 values in the range of 1-10 μM are considered to have moderate affinity)
- MIC [2]: 0.4 to 0.9 µg/mL
- MIC [3]: 0.9 µg/mL
- MIC [10]: 0.9 µg/mL
- MIC (B. subtilis 168): > 215 µg/mL
- intracellular ROS production (C. albicans ATCC 10231 [7]; 1× and 2× MIC): increased intracellular ROS production
- development of drug resistance (C. albicans ATCC 10231 [8]): did not to develop drug resistance
- MIC (K. pneumoniae ATCC 27736): > 215 µg/mL
- development of resistance (passage after which resistance developed) (P. aeruginosa ATCC 27853 [5]): twelve

SMILES: Cl.N=C(N)N/N=C/c1ccc(-c2ccc(/C=N/Nc3ccccc3Br)cc2)cc1 [Compound 7Ab]
- MIC (E. coli MC1061): > 235 µg/mL

SMILES: Cl.N=C(N)N/N=C/c1ccc(-c2ccc(/C=N/Nc3ccc(Cl)cc3)cc2)cc1 [Compound 7Ad]
- MIC (E. coli MC1061): > 214 µg/mL
- IC50 [6]: 4.4 to 13.9 µg/mL

SMILES: Cl.N#Cc1ccc(N/N=C/c2ccc(-c3ccc(/C=N/NC(=N)N)cc3)cc2)cc1 [Compound 7Ae]
- MIC (E. coli MC1061): 26.1 to 52.2 µg/mL

SMILES: Cl.N=C(N)N/N=C/c1ccc(-c2ccc(/C=N/Nc3ccc(F)cc3F)cc2)cc1 [Compound 7Af]
- MIC (E. coli MC1061): > 214 µg/mL
- affinity for / interaction with hERG (class) (hERG channel): moderate (IC50 values in the range of 1-10 μM are considered to have moderate affinity)
- IC50 [6]: 4.4 to 13.9 µg/mL
- antifungal activity (class) [11]: excellent (excellent (MIC = 0.5-3.9 μg/mL))

SMILES: Cl.N=C(N)N/N=C/c1ccc(-c2ccc(/C=N/Nc3ccc(Cl)cc3Cl)cc2)cc1 [Compound 7Ag]
- MIC (E. coli MC1061): > 231 µg/mL

SMILES: C/C(=N\NC(=N)N)c1ccc(-c2ccc(/C(C)=N/Nc3ccccc3Cl)cc2)cc1.Cl [Compound 8Aa]
- MIC (E. cloacae ATCC 13047): 213 µg/mL
- MIC (P. aeruginosa ATCC 27853 [9]): 213 µg/mL
- MIC (E. coli MC1061): 213 µg/mL

SMILES: OO [Compound H2O2, H2O2, reference compound]
- intracellular ROS production (C. albicans ATCC 10231 [7]; positive control at 1 mM): induced ROS production

SMILES: CC1COc2c(N3CCN(C)CC3)c(F)cc3c(=O)c(C(=O)O)cn1c23 (stereo not shown) [OFX, ofloxacin, reference compound]
- MIC (E. coli MC1061): 1.4 to 2.8 µg/mL (≈ 3.87 to 7.75 µM)
- MIC, range over bacterial strains tested [4]: ≤0.5 to 31.3 µM
